Measured values published in patent US8247211B2, “Glycopeptide antibiotics” (American Cyanamid Company, priority 2001, dated 2012).
≈ marks a conversion by molar mass, not a printed value. One block for each molecule: values may come before it.

Assays:
Assay in all cases: In vitro antibacterial evaluation: minimum inhibitory concentration (MIC), broth dilution method
Type in all cases: cell-based
Settings in all cases: 18 hours at 35° C.
Escherichia coli = system: Escherichia coli
How it was run: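 First, organisms are seeded at 5×10^5 CFU/mL into Muller-Hinton II […]. Next, antibiotic is applied across 64-0.06 μg/mL by broth dilution (NCCLS M7-A2). Finally, the lowest inhibitory concentration is recorded as MIC.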

Streptococcus sp. = system: Streptococcus sp.
How it was run: (§1)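 MIC by broth dilution in Mueller-Hinton II medium following NCCLS M7-A2. Inoculum was 5×10^5 CFU/mL and antibiotic was tested over 64-0.06 μg/mL. Gram-positive panel included clinical isolates resistant to methicillin, penicillin and/or vancomycin.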

Staphylococcus sp. = system: Staphylococcus sp.
How it was run: as §1

Enterococcus sp. = system: Enterococcus sp.
How it was run: as §1

[1] = Streptococcus agalactiae (GC 4564)
[2] = Streptococcus pneumoniae (ATCC 6301)
[3] = Streptococcus pneumoniae (GC 1894)
[4] = Streptococcus pneumoniae (GC 4565)
[5] = Streptococcus pyogenes (GC 4563)
[6] = broth dilution, inoculum 5×10^5 CFU/mL

MIC Escherichia coli (ATCC 25922) (Escherichia coli; Escherichia coli (ATCC 25922)): 16 µg/mL (≈ 11 µM) | MIC Escherichia coli (GC 4559) (Escherichia coli; Escherichia coli (GC 4559)): 16 µg/mL (≈ 11 µM) | MIC Escherichia coli (GC 4560) (Escherichia coli): 2 µg/mL (≈ 1.37 µM) | MIC Streptococcus agalactiae (GC 4564) (Streptococcus sp.; [1]): 0.5 µg/mL (≈ 0.343 µM) | MIC Streptococcus pneumoniae (ATCC 6301) (Streptococcus sp.; [2]): 0.25 µg/mL (≈ 0.171 µM) | MIC Streptococcus pneumoniae (GC 1894) (Streptococcus sp.; [3]): <0.12 µg/mL | MIC Streptococcus pneumoniae (GC 4565) (Streptococcus sp.; [4]): 0.25 µg/mL (≈ 0.171 µM) | MIC Streptococcus pyogenes (GC 4563) (Streptococcus sp.; [5]): 0.5 µg/mL (≈ 0.343 µM) | MIC Streptococcus agalactiae (GC 4564) (Streptococcus sp.; [6]): 0.5 µg/mL (≈ 0.343 µM) | MIC Streptococcus pneumoniae (ATCC 6301) (Streptococcus sp.; [6]): 0.25 µg/mL (≈ 0.171 µM) | MIC Streptococcus pneumoniae (GC 1894) (Streptococcus sp.; [6]): <0.12 µg/mL | MIC Streptococcus pneumoniae (GC 4565) (Streptococcus sp.; [6]): 0.25 µg/mL (≈ 0.171 µM) | MIC Streptococcus pyogenes (GC 4563) (Streptococcus sp.; [6]): 0.5 µg/mL (≈ 0.343 µM) | MIC Coagulase Negative Staphylococcus (GC 4547) (Staphylococcus sp.): 1 µg/mL (≈ 0.685 µM) | MIC Coagulase Negative Staphylococcus (GC 4548) (Staphylococcus sp.): 1 µg/mL (≈ 0.685 µM) | MIC Coagulase Negative Staphylococcus (GC 4549) (Staphylococcus sp.): 1 µg/mL (≈ 0.685 µM) | MIC Coagulase Negative Staphylococcus (GC 4551) (Staphylococcus sp.): 2 µg/mL (≈ 1.37 µM) | MIC Coagulase Negative Staphylococcus (GC 6257) (Staphylococcus sp.): 2 µg/mL (≈ 1.37 µM) | MIC Staphylococcus aureus (ATCC 29213) (Staphylococcus sp.): 2 µg/mL (≈ 1.37 µM) | MIC Staphylococcus aureus (GC 1131) (Staphylococcus sp.; Staphylococcus aureus (GC 1131)): 4 µg/mL (≈ 2.74 µM) | MIC Staphylococcus aureus (GC 3051) (Staphylococcus sp.): 1 µg/mL (≈ 0.685 µM) | MIC Staphylococcus aureus (GC 3053) (Staphylococcus sp.; Staphylococcus aureus (GC 3053)): 2 µg/mL (≈ 1.37 µM) | MIC Staphylococcus aureus (GC 4541) (Staphylococcus sp.): 1 µg/mL (≈ 0.685 µM) | MIC Staphylococcus aureus (GC 4542) (Staphylococcus sp.): 1 µg/mL (≈ 0.685 µM) | MIC Staphylococcus aureus (GC 4544) (Staphylococcus sp.): 2 µg/mL (≈ 1.37 µM) | MIC Staphylococcus aureus (GC 4545) (Staphylococcus sp.): 2 µg/mL (≈ 1.37 µM) | MIC Staphylococcus aureus-SMITH (GC 4543) (Staphylococcus sp.): 1 µg/mL (≈ 0.685 µM) | MIC Enterococcus avium (GC 4558) (Enterococcus sp.): 2 µg/mL (≈ 1.37 µM) | MIC Enterococcus faecalis (ATCC 29212) (Enterococcus sp.; Enterococcus faecalis (ATCC 29212)): 4 µg/mL (≈ 2.74 µM) | MIC Enterococcus faecalis (GC 2242) (Enterococcus sp.; Enterococcus faecalis (GC 2242)): 4 µg/mL (≈ 2.74 µM) | MIC Enterococcus faecalis (GC 2691) (Enterococcus sp.; Enterococcus faecalis (GC 2691)): 8 µg/mL (≈ 5.48 µM) | MIC Enterococcus faecalis (GC 3059) (Enterococcus sp.; Enterococcus faecalis (GC 3059)): 4 µg/mL (≈ 2.74 µM) | MIC Enterococcus faecalis (GC 4552) (Enterococcus sp.; Enterococcus faecalis (GC 4552)): 4 µg/mL (≈ 2.74 µM) | MIC Enterococcus faecalis (GC 4553) (Enterococcus sp.; Enterococcus faecalis (GC 4553)): 2 µg/mL (≈ 1.37 µM) | MIC Enterococcus faecalis (GC 4554) (Enterococcus sp.; Enterococcus faecalis (GC 4554)): 4 µg/mL (≈ 2.74 µM) | MIC Enterococcus faecalis (GC 6189) (Enterococcus sp.; Enterococcus faecalis (GC 6189)): 4 µg/mL (≈ 2.74 µM) | MIC Enterococcus faecium (GC 2243) (Enterococcus sp.; Enterococcus faecium (GC 2243)): 4 µg/mL (≈ 2.74 µM) | MIC Enterococcus faecium (GC 4556) (Enterococcus sp.; Enterococcus faecium (GC 4556)): 4 µg/mL (≈ 2.74 µM) | MIC Enterococcus faecium (GC 4557) (Enterococcus sp.): 2 µg/mL (≈ 1.37 µM) | MIC Enterococcus faecalis (GC 2242) (Enterococcus sp.; [6]): 4 µg/mL (≈ 2.74 µM) | MIC Enterococcus faecalis (GC 2691) (Enterococcus sp.; [6]): 8 µg/mL (≈ 5.48 µM) | MIC Enterococcus faecalis (GC 3059) (Enterococcus sp.; [6]): 4 µg/mL (≈ 2.74 µM)
SMILES: CC(c1ccccc1)C1NC(=O)CNC(=O)C(CO)NC(=O)C(CC2CNC(=N)N2C2OC(CO)C(O)C(O)C2O)NC(=O)C(CC2CNC(=N)N2)NC(=O)C(Cc2ccc(OC3OC(CO)C(OC4OC(CO)C(OCc5ccc(OCc6ccccc6)cc5)C(O)C4O)C(O)C3O)cc2)NC1=O (centres unmarked) [Example 246a]
MIC Staphylococcus haemolyticus (GC 4546) (Staphylococcus sp.; Staphylococcus haemolyticus (GC 4546)): 1 µg/mL (≈ 0.685 µM)

MIC Escherichia coli (GC 4560) (Escherichia coli): 32 µg/mL (≈ 21.9 µM) | MIC Streptococcus agalactiae (GC 4564) (Streptococcus sp.; [1]): 64 µg/mL (≈ 43.8 µM) | MIC Streptococcus pneumoniae (ATCC 6301) (Streptococcus sp.; [2]): 32 µg/mL (≈ 21.9 µM) | MIC Streptococcus pneumoniae (GC 1894) (Streptococcus sp.; [3]): 32 µg/mL (≈ 21.9 µM) | MIC Streptococcus pneumoniae (GC 4565) (Streptococcus sp.; [4]): 64 µg/mL (≈ 43.8 µM) | MIC Streptococcus pyogenes (GC 4563) (Streptococcus sp.; [5]): 64 µg/mL (≈ 43.8 µM) | MIC Streptococcus agalactiae (GC 4564) (Streptococcus sp.; [6]): 64 µg/mL (≈ 43.8 µM) | MIC Streptococcus pneumoniae (ATCC 6301) (Streptococcus sp.; [6]): 32 µg/mL (≈ 21.9 µM) | MIC Streptococcus pneumoniae (GC 1894) (Streptococcus sp.; [6]): 32 µg/mL (≈ 21.9 µM) | MIC Streptococcus pneumoniae (GC 4565) (Streptococcus sp.; [6]): 64 µg/mL (≈ 43.8 µM) | MIC Streptococcus pyogenes (GC 4563) (Streptococcus sp.; [6]): 64 µg/mL (≈ 43.8 µM) | MIC Coagulase Negative Staphylococcus (GC 4547) (Staphylococcus sp.): 64 µg/mL (≈ 43.8 µM) | MIC Coagulase Negative Staphylococcus (GC 4548) (Staphylococcus sp.): 64 µg/mL (≈ 43.8 µM) | MIC Coagulase Negative Staphylococcus (GC 4549) (Staphylococcus sp.): 32 µg/mL (≈ 21.9 µM) | MIC Coagulase Negative Staphylococcus (GC 4551) (Staphylococcus sp.): 64 µg/mL (≈ 43.8 µM) | MIC Coagulase Negative Staphylococcus (GC 6257) (Staphylococcus sp.): 64 µg/mL (≈ 43.8 µM) | MIC Staphylococcus aureus (ATCC 29213) (Staphylococcus sp.): 64 µg/mL (≈ 43.8 µM) | MIC Staphylococcus aureus (GC 3051) (Staphylococcus sp.): 64 µg/mL (≈ 43.8 µM) | MIC Staphylococcus aureus (GC 4541) (Staphylococcus sp.): 64 µg/mL (≈ 43.8 µM) | MIC Staphylococcus aureus (GC 4542) (Staphylococcus sp.): 64 µg/mL (≈ 43.8 µM) | MIC Staphylococcus aureus (GC 4544) (Staphylococcus sp.): 64 µg/mL (≈ 43.8 µM) | MIC Staphylococcus aureus (GC 4545) (Staphylococcus sp.): 64 µg/mL (≈ 43.8 µM) | MIC Staphylococcus aureus-SMITH (GC 4543) (Staphylococcus sp.): >64 µg/mL | MIC Enterococcus avium (GC 4558) (Enterococcus sp.): 64 µg/mL (≈ 43.8 µM) | MIC Enterococcus faecium (GC 4557) (Enterococcus sp.): 32 µg/mL (≈ 21.9 µM)
SMILES: CC(c1ccccc1)C1NC(=O)CNC(=O)C(CO)NC(=O)C(CC2CNC(=N)N2C2OC(CO)C(O)C(O)C2O)NC(=O)C(CC2CNC(=N)N2)NC(=O)C(Cc2ccc(OC3OC(CO)C(OC4OC(CO)C(O)C(OCc5ccc(OCc6ccccc6)cc5)C4O)C(O)C3O)cc2)NC1=O (centres unmarked) [Example 246b]
